Source: patent US9926304B2, “1-(arylmethyl)quinazoline-2,4(1H,3H)-diones as PARP inhibitors and the use thereof” (Impact Therapeutics, Inc., priority 2011, dated 2018)
Read-outs that look alike come from different tables or passages of the source.

Legend:
[1] = system: Human breast cancer cell line T47D; assay: Cell based caspase-3 activity assay: potentiation of MMS induced apoptosis; settings: T47D cells, 11.1 μg/ml MMS, 24 hours, intracellular caspase-3 activity, read-out: EC50 (nM), potentiation of the apoptosis inducing activity of MMS
Summary of the method: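 T47D cells were exposed for 24 h to compound plus a minimally apoptotic MMS dose (medium containing 11.1 μg/ml MMS). Lysates were incubated 3 h at 37 °C with (Ac-DEVD)2-R110 caspase-3 substrate (20 μM in added buffer) and read at ex 496/em 520 nm. EC50 came from a sigmoidal fit of RFU versus log concentration.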

[2] = system: SW620 human colorectal cancer cells; assay: MTT based cell viability assay: potentiation of the growth inhibiting activity of MMS
[3] = Homo sapiens, SW-620, 120 h, read-out: IC50 (nM), potentiation of the growth inhibiting activity of MMS, SW620 cells, 1.7 μg/ml MMS, 5 days (120 hours), MTT

Compound | EC50 [1] [nM] | IC50 ([2]; read-out: IC50 (nM), potentiation of the growth inhibiting activity of MMS, SW620 cells, 1.7 μg/ml MMS, 5 days (120 hours), MTT) [nM] | EC50 ([1]; Homo sapiens, T47D, 24 h) [nM] | IC50 [2, 3] [nM]
O=C(c1cccc(Cn2c(=O)[nH]c(=O)c3cc4c(cc32)OCO4)c1)N1CCN(c2ncccn2)CC1 [Example 216, 6,7-Methylenedioxo-1-(3-(4-(pyrimidin-2-yl)piperazine-1-carbonyl)benzyl)quinazoline-2,4(1H,3H)-dione] | > 10000 | > 10000 | – | –
O=C(c1cccc(Cn2c(=O)[nH]c(=O)c3cccc(F)c32)c1)N1CCN(c2ncccn2)CC1 [Example 218, 8-Fluoro-1-(3-(4-(pyrimidin-2-yl)piperazine-1-carbonyl)benzyl)quinazoline-2,4(1H,3H)-dione] | – | – | 37 | 103
Nc1ccc2c(c1)c(=O)[nH]c(=O)n2Cc1cccc(C(=O)N2CCN(c3ncccn3)CC2)c1 [Example 219, 6-Amino-1-(3-(4-(pyrimidin-2-yl)piperazine-1-carbonyl)benzyl)quinazoline-2,4(1H,3H)-dione] | – | – | 445 | 481
O=C(c1ccccc1Cn1c(=O)[nH]c(=O)c2ccccc21)N1CCN(c2ncccn2)CC1 [Example 220, 1-(2-(4-(Pyrimidin-2-yl)piperazine-1-carbonyl)benzyl)quinazoline-2,4(1H,3H)-dione] | – | – | > 10000 | > 10000
O=C(c1cccc(-n2c(=O)[nH]c(=O)c3ccccc32)c1)N1CCN(c2ncccn2)CC1 [Example 221, 1-(3-(4-(Pyrimidin-2-yl)piperazine-1-carbonyl)phenyl)quinazoline-2,4(1H,3H)-dione] | – | – | > 10000 | > 10000
O=C(c1cccc(Cn2c(=O)[nH]c3c(Cl)cccc3c2=O)c1)N1CCN(c2ncccn2)CC1 [Example 223, 8-Chloro-3-(3-(4-(pyrimidin-2-yl)piperazine-1-carbonyl)benzyl)quinazoline-2,4(1H,3H)-dione] | – | – | > 10000 | > 10000
O=C(c1cccc(Cn2c(=O)[nH]c(=O)c3cccc(Cl)c32)c1)N1CCN(c2ncccn2)CC1 [Example 224, 8-Chloro-1-(3-(4-(pyrimidin-2-yl)piperazine-1-carbonyl)benzyl)quinazoline-2,4(1H,3H)-dione] | – | – | 274 | 1110
Cc1cccc2c(=O)n(Cc3cccc(C(=O)N4CCN(c5ncccn5)CC4)c3)c(=O)[nH]c12 [Example 225, 8-Methyl-3-(3-(4-(pyrimidin-2-yl)piperazine-1-carbonyl)benzyl)quinazoline-2,4(1H,3H)-dione] | – | – | > 10000 | > 10000
Cc1cccc2c(=O)[nH]c(=O)n(Cc3cccc(C(=O)N4CCN(c5ncccn5)CC4)c3)c12 [Example 226, 8-Methyl-1-(3-(4-(pyrimidin-2-yl)piperazine-1-carbonyl)benzyl)quinazoline-2,4(1H,3H)-dione] | – | – | 24 | 84

The next lines start with the values.

EC50 [1] [nM] | IC50 ([2]; read-out: IC50 (nM), potentiation of the growth inhibiting activity of MMS, SW620 cells, 1.7 μg/ml MMS, 5 days (120 hours), MTT) [nM] | EC50 ([1]; Homo sapiens, T47D, 24 h) [nM] | IC50 [2, 3] [nM] | Compound
– | – | 40 | 13 | COc1cccc2c(=O)[nH]c(=O)n(Cc3cccc(C(=O)N4CCN(c5ncccn5)CC4)c3)c12 [Example 227, 8-Methoxy-1-(3-(4-(pyrimidin-2-yl)piperazine-1-carbonyl)benzyl)quinazoline-2,4(1H,3H)-dione]
– | – | > 10000 | > 10000 | O=C(c1cccc(Cn2c(=O)[nH]c3ccccc3c2=O)c1)N1CCN(c2ncccn2)CC1 [Example 228, 3-(3-(4-(Pyrimidin-2-yl)piperazine-1-carbonyl)benzyl)quinazoline-2,4(1H,3H)-dione]
– | – | > 10000 | > 10000 | O=C(c1cccc(CCn2c(=O)[nH]c(=O)c3ccccc32)c1)N1CCN(c2ncccn2)CC1 [Example 229, 1-(3-(4-(Pyrimidin-2-yl)piperazine-1-carbonyl)phenethyl)quinazoline-2,4(1H,3H)-dione]
– | – | 3.2 | 2.6 | O=C(c1cccc(Cn2c(=O)[nH]c(=O)c3cccc(O)c32)c1)N1CCN(c2ncccn2)CC1 [Example 230, 8-Hydroxy-1-(3-(4-(pyrimidin-2-yl)piperazine-1-carbonyl)benzyl)quinazoline-2,4(1H,3H)-dione]
